Data published in patent US8334253B2, “Cosmetic and dermatological formulations of MNTF peptides” (Dermacare Neuroscience Institute, priority 2008, dated 2012).
Peptide text beside a SMILES is read from it. * marks the point of attachment. Palmitoyl = CCCCCCCCCCCCCCCC(=O)*

Key:
[1] = tested on: cellular peroxide levels in human epidermal keratinocytes; assay: Cellular peroxide levels in keratinocytes, DCFH-DA dye and flow cytometry, with and without exogenous H2O2; format: cell-based
Procedure: Hydrogen peroxide can induce damages to skin cells. The dermal protective efficacy of Pal-hexapeptide was assessed by measuring basal peroxide levels in the presence and absence of the compound.
Basal peroxide production, generated by normal cellular metabolism, induce gradual development of low levels of peroxide-specific cellular fluorescence.
Extracellular peroxides (e.g., H2O2 added exogenously) can permeate the cell membrane and cause a rapid and dramatic increase in the peroxide-specific fluorescence of the cell. Cellular peroxides levels can be measured by flow cytometry using the peroxide-specific dye, 2′,7′-dichlorofluorescein diacetate (DCFH-DA). DCFH-DA is initially non-fluorescent and is rapidly concentrated within living cells by an enzyme-dependent process. […] The results of the assay indicates if a test compound functions as an oxidant or an anti-oxidant in a cellular system. If the test article functions as an anti-oxidant, this assay can also be used to determine if the test compound can permeate the cell membrane to quench intracellular peroxide or if it can only affect extracellular peroxide levels (Bass et al., 1983, J. Immunol. 130:1910-1917; Bombick et al., 1992, Toxicol. Meth. 2:255-264).
Human primary keratinocytes, generally on the third passage, were seeded in T75 flasks and cultured until 70-80% confluent. A cell suspension was created and these cells were loaded with the dye DCFH-DA. The pre-incubated cells were exposed to dilutions of the Pal-hexapeptide having the amino acid sequence SEQ ID NO: 2 in two triplicate sets per dilution. One triplicate set was incubated with H2O2 (exogenous source of peroxide), and both sets were stained with Propidium Iodide. Cell viability and peroxide production were determined by fluorescence readings on a FACScan flow cytometer. Peroxide value increases or decreases of 25% or more compared to vehicle control values are considered biologically significant.

human keloid fibroblasts = assay: Human keloid fibroblast proliferation kinetic study; format: cell-based; details: for inhibition of proliferation of human keloid fibroblasts: cell counts on days 1-4, Trypan blue exclusion
Procedure: Keloid can be characterized as a hyperproliferation/growth of fibrous scar tissue following trauma to the skin. […] Experimental protocols were based on a published study design for keloid fibroblast growth kinetics and is as described in Polo et al., 1999, Ann. Plastic Surg. 43 (2):185-190.
Briefly, fibroblasts were cultured from skin tissue obtained from fresh surgical specimens. The skin specimen was rinsed in 10 ml of calcium- and magnesium-free Dulbecco's phosphate-buffered saline (Sigma Chemical Co, St. Louis, Mo.) supplemented with gentamycin ([…]) for 30 minutes at room temperature. A second antibiotic rinse using 1% 10,000 U per milliliter penicillin G, 25 micrograms per milliliter amphotericin B, 10,000 micrograms per milliliter streptomycin sulfate solution (Gibco BRL, Gran Island, N.Y.) was performed for 10 minutes. The epidermis was separated from the dermis from each piece. The specimen was cut into four pieces of equal dimensions. Each piece was placed dermis-side down into a 60-mm culture dish containing Dispase solution (Collaborative Biomedical Products, Bedford, Mass.). The explants were incubated with no additional culture media for 15 minutes at 37° C. A total of 10 ml Dulbecco's modified Eagle's medium (DMEM; Gibco BRL) was added slowly to the culture dish, which was then incubated at 37° C. at 5% carbon dioxide. The cells were subcultured until 80% confluence was obtained. Trypsin-ethylenediaminetetraacetic acid (Gibco BRL) was added to […] the cells from the surface of the culture plate, and the cells were washed with DMEM and transferred to a centrifuge tube. […] The cells were counted using a hemocytometer, and their cell number was adjusted to 1×10^6 cells, which were then plated on a 35-mm Petri dish with 2 ml DMED and 1% fetal bovine serum, and incubated at 37° C. in 5% carbon dioxide. […]
Samples from each group were removed on days 1, 2, 3 and 4. The cells from each sample were trypsinized, washed, centrifuged, and resuspended in 1 ml DMEM; and were counted using the Trypan blue dye exclusion method and a hemocytometer.

CCCCCCCCCCCCCCCC(=O)N[C@@H](Cc1ccccc1)C(=O)N[C@@H](CO)C(=O)N[C@@H](CCCNC(=N)N)C(=O)N[C@@H](Cc1ccc(O)cc1)C(=O)N[C@@H](C)C(=O)N[C@@H](CCCNC(=N)N)C(=O)O [Pal 6 mer, Pal-FSRYAR] (Palmitoyl-FSRYAR-OH; C-terminus assumed)
peroxide level, % of the control, endogenous peroxide assay without exogenous H2O2 ([1]; 0.79 mM, endogenous peroxide): 40.21% | peroxide level, % of the control, assay with exogenous added peroxide ([1]; 0.79 mM, exogenous H2O2 added): 9.88% | Cell viability, expressed as % of non-viable, treated versus not treated cells ([1]; keratinocytes, Propidium Iodide staining): about the same | inhibition of human keloid fibroblast cells, dose response study (human keloid fibroblasts; 10^−5 M or 10 micrograms per milliliter): highly effective | inhibition of proliferation of human keloid fibroblasts (human keloid fibroblasts; listed as MNTF): statistically significant | inhibition of proliferation of human keloid fibroblasts (human keloid fibroblasts; listed as Pal-Hexapeptide): dose-dependent reduction/inhibition
